Experimental findings from patent US10519152B2, “Compounds and their use in treating cancer” (AstraZeneca AB, priority 2017, dated 2019) are described below.

The assay concerns the target T1, recombinant human Estrogen Receptor alpha ligand binding domain, residues 307-554 (ER alpha-LBD (GST)) (Homo sapiens, UniProt P03372).
T1 construct: made in house
T1 sequence (P03372 307-554): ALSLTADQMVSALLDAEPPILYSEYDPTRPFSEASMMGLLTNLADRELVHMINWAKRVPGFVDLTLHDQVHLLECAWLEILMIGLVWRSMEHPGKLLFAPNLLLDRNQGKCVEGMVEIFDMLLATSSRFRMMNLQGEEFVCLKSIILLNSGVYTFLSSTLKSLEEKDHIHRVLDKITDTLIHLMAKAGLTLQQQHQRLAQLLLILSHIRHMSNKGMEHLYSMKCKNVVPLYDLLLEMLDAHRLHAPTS
Briefly: ERα binding assay (LanthaScreen TR-FRET competition). Particulars: TR-FRET competition with Fluormone ES2 tracer, 4 hours at room temperature; single experiment or average of two or more.

In the case of `Cc1ncsc1-c1ccc([C@H](C)NC(=O)[C@@H]2C[C@@H](O)CN2C(=O)[C@@H](NC(=O)COCCOCCCCCOc2cc(F)c([C@@H]3c4[nH]c5ccccc5c4C[C@@H](C)N3CC(F)(F)F)c(F)c2)C(C)(C)C)cc1` [Example 140, (2S,4R)-1-((S)-2-(2-(2-((5-(3,5-Difluoro-4-((1R,3R)-3-methyl-2-(2,2,2-trifluoroethyl)-2,3,4,9-tetrahydro-1H-pyrido[3,4-b]indol-1-yl)phenoxy)pentyl)oxy)ethoxy)acetamido)-3,3-dimethylbutanoyl)-4-hydroxy-N—((S)-1-(4-(4-methylthiazol-5-yl)phenyl)ethyl)pyrrolidine-2-carboxamide], the IC50 (usually the concentration at which inhibition is half-maximal) came to 500 pM. For `Cc1ncsc1-c1ccc([C@H](C)NC(=O)[C@@H]2C[C@@H](O)CN2C(=O)[C@@H](NC(=O)C(F)(F)OCCOCCCCOc2cc(F)c([C@@H]3c4[nH]c5ccccc5c4C[C@@H](C)N3CC(C)(C)F)c(F)c2)C(C)(C)C)cc1` [Example 122, (2S,4R)-1-((S)-2-(2-(2-(4-(3,5-Difluoro-4-((1R,3R)-2-(2-fluoro-2-methylpropyl)-3-methyl-2,3,4,9-tetrahydro-1H-pyrido[3,4-b]indol-1-yl)phenoxy)butoxy)ethoxy)-2,2-difluoroacetamido)-3,3-dimethylbutanoyl)-4-hydroxy-N—((S)-1-(4-(4-methylthiazol-5-yl)phenyl)ethyl)pyrrolidine-2-carboxamide], the IC50 came to 1500 pM. With `Cc1ncsc1-c1ccc(CNC(=O)[C@@H]2C[C@@H](O)CN2C(=O)[C@@H](NC(=O)COCCCCCOCCOc2ccc([C@@H]3c4[nH]c5ccccc5c4C[C@@H](C)N3CC(F)F)nc2)C(C)(C)C)cc1` [Example 10, (2S,4R)-1-((S)-2-(2-((5-(2-((6-((1S,3R)-2-(2,2-Difluoroethyl)-3-methyl-2,3,4,9-tetrahydro-1H-pyrido[3,4-b]indol-1-yl)pyridin-3-yl)oxy)ethoxy)pentyl)oxy)acetamido)-3,3-dimethylbutanoyl)-4-hydroxy-N-(4-(4-methylthiazol-5-yl)benzyl)pyrrolidine-2-carboxamide] the figure was 39000 pM; with `Cc1ncsc1-c1ccc(CNC(=O)[C@@H]2C[C@@H](O)CN2C(=O)[C@@H](NC(=O)COCCCCOc2cc(F)c([C@@H]3c4[nH]c5ccccc5c4C[C@@H](C)N3CC(C)(C)F)c(F)c2)C(C)(C)C)cc1` [Example 14, (2S,4R)-1-((S)-2-(2-(4-(3,5-Difluoro-4-((1R,3R)-2-(2-fluoro-2-methylpropyl)-3-methyl-2,3,4,9-tetrahydro-1H-pyrido[3,4-b]indol-1-yl)phenoxy)butoxy)acetamido)-3,3-dimethylbutanoyl)-4-hydroxy-N-(4-(4-methylthiazol-5-yl)benzyl)pyrrolidine-2-carboxamide], 900 pM; with `Cc1ncsc1-c1ccc(CNC(=O)[C@@H]2C[C@@H](O)CN2C(=O)[C@@H](NC(=O)C(F)(F)OCCCOCCCOc2cc(F)c([C@@H]3c4[nH]c5ccccc5c4C[C@@H](C)N3CC(C)(C)F)c(F)c2)C(C)(C)C)cc1` [Example 119, (2S,4R)-1-((S)-2-(2-(3-(3-(3,5-Difluoro-4-((1R,3R)-2-(2-fluoro-2-methylpropyl)-3-methyl-2,3,4,9-tetrahydro-1H-pyrido[3,4-b]indol-1-yl)phenoxy)propoxy)propoxy)-2,2-difluoroacetamido)-3,3-dimethylbutanoyl)-4-hydroxy-N-(4-(4-methylthiazol-5-yl)benzyl)pyrrolidine-2-carboxamide], 800 pM. With `Cc1ncsc1-c1ccc(CNC(=O)[C@@H]2C[C@@H](O)CN2C(=O)[C@@H](NC(=O)COCCCCOCCOc2cc(F)c([C@@H]3c4[nH]c5ccccc5c4C[C@@H](C)N3CC(C)(C)F)c(F)c2)C(C)(C)C)cc1` [Example 16, (2S,4R)-1-((S)-2-(2-(4-(2-(3,5-Difluoro-4-((1R,3R)-2-(2-fluoro-2-methylpropyl)-3-methyl-2,3,4,9-tetrahydro-1H-pyrido[3,4-b]indol-1-yl)phenoxy)ethoxy)butoxy)acetamido)-3,3-dimethylbutanoyl)-4-hydroxy-N-(4-(4-methylthiazol-5-yl)benzyl)pyrrolidine-2-carboxamide] the figure was 800 pM. With `Cc1ncsc1-c1ccc([C@H](C)NC(=O)[C@@H]2C[C@@H](O)CN2C(=O)[C@@H](NC(=O)CCOCCCCCCCOc2cc(F)c([C@@H]3c4[nH]c5ccccc5c4C[C@@H](C)N3CC(C)(C)F)c(F)c2)C(C)(C)C)cc1` [Example 114, (2S,4R)-1-((S)-2-(3-((7-(3,5-difluoro-4-((1R,3R)-2-(2-fluoro-2-methylpropyl)-3-methyl-2,3,4,9-tetrahydro-1H-pyrido[3,4-b]indol-1-yl)phenoxy)heptyl)oxy)propanamido)-3,3-dimethylbutanoyl)-4-hydroxy-N—((S)-1-(4-(4-methylthiazol-5-yl)phenyl)ethyl)pyrrolidine-2-carboxamide] the figure was 900 pM; with `Cc1ncsc1-c1ccc(CNC(=O)[C@@H]2C[C@@H](O)CN2C(=O)[C@@H](NC(=O)CNCCC(F)(F)CCOc2cc(F)c([C@@H]3c4[nH]c5ccccc5c4C[C@@H](C)N3CC(C)(C)F)c(F)c2)C(C)(C)C)cc1` [Example 131, (2S,4R)-1-((S)-2-(2-((5-(3,5-Difluoro-4-((1R,3R)-2-(2-fluoro-2-methylpropyl)-3-methyl-2,3,4,9-tetrahydro-1H-pyrido[3,4-b]indol-1-yl)phenoxy)-3,3-difluoropentyl)amino)acetamido)-3,3-dimethylbutanoyl)-4-hydroxy-N-(4-(4-methylthiazol-5-yl)benzyl)pyrrolidine-2-carboxamide], 1600 pM; with `Cc1ncsc1-c1ccc(CNC(=O)[C@@H]2C[C@@H](O)CN2C(=O)[C@@H](NC(=O)COCCCCCCCOc2ccc([C@@H]3c4[nH]c5ccccc5c4C[C@@H](C)N3CC(F)F)nc2)C(C)(C)C)cc1` [Example 6, (2S,4R)-1-((S)-2-(2-((7-((6-((1S,3R)-2-(2,2-Difluoroethyl)-3-methyl-2,3,4,9-tetrahydro-1H-pyrido[3,4-b]indol-1-yl)pyridin-3-yl)oxy)heptyl)oxy)acetamido)-3,3-dimethylbutanoyl)-4-hydroxy-N-(4-(4-methylthiazol-5-yl)benzyl)pyrrolidine-2-carboxamide], 4200 pM. Regarding `Cc1ncsc1-c1ccc(CNC(=O)[C@@H]2C[C@@H](O)CN2C(=O)[C@@H](NC(=O)C2(OCCCCCCOc3cc(F)c([C@@H]4c5[nH]c6ccccc6c5C[C@@H](C)N4CC(C)(C)F)c(F)c3)CC2)C(C)(C)C)cc1` [Example 118, (2S,4R)-1-((S)-2-(1-((6-(3,5-difluoro-4-((1R,3R)-2-(2-fluoro-2-methylpropyl)-3-methyl-2,3,4,9-tetrahydro-1H-pyrido[3,4-b]indol-1-yl)phenoxy)hexyl)oxy)cyclopropane-1-carboxamido)-3,3-dimethylbutanoyl)-4-hydroxy-N-(4-(4-methylthiazol-5-yl)benzyl)pyrrolidine-2-carboxamide], the half-maximal inhibitory concentration (IC50) came to 700 pM.
